Results on ten compounds are retold here after article PMC12079613 (Journal of medicinal chemistry, 2019).

As a reminder, the Ki is the dissociation constant of the complex between target and ligand, obtained from inhibition or displacement. As a reminder, the inhibition is the percentage by which the read-out fell short of the control.

The target of experiment [1] is T1, D3R (Homo sapiens, UniProt P35462). Put plainly: Radioligand binding, [125I]IABN, HEK cells expressing human D3. The note with it: for D2/D3 ratio: (Ki for D2 receptors)/(Ki for D3 receptors).
The target of the next experiment is human D2 (long) (Homo sapiens, UniProt P14416). Briefly: Radioligand binding, [125I]IABN, HEK cells expressing human D2. The conditions noted are these: human D2 in HEK cells, mean ± SEM, at least three experiments.
Experiment [2] has as its target serotonin subclass receptors. Briefly: PDSP binding, serotonin subclass receptors. The conditions noted are these: read-out: Ki for all of the serotonin subclass receptors.
A further experiment deals with α4β4 (Rattus norvegicus, UniProt P09483+P12392). Put plainly: PDSP binding, α4β4. The note with it: read-out: inhibition in primary assay at 10 μM.
Another experiment addresses α3β2 (Rattus norvegicus, UniProt P04757+P12390). Briefly: PDSP binding, α3β2. The note with it: read-out: inhibition in primary assay at 10 μM.
Experiment [3] deals with T1, D3R. Put plainly: Dopamine-mediated β-arrestin 2 recruitment assay. Format: cell-based. The conditions noted are these: DA as orthosteric ligand.
In another experiment the target is α2β2 (Rattus norvegicus, UniProt P12389+P12390). Put plainly: PDSP binding, α2β2. The conditions noted are these: read-out: inhibition in primary assay at 10 μM.
The next experiment has as its target α2β4 (Rattus norvegicus, UniProt P12389+P12392). Briefly: PDSP binding, α2β4. The conditions noted are these: read-out: inhibition in primary assay at 10 μM.
A further experiment addresses D2R (Homo sapiens, UniProt P14416). Put plainly: PDSP β-arrestin recruitment Tango assay, D2R. The format is cell-based. The conditions noted are these: Tango assays, agonist and antagonist mode.
The target in experiment [4] is T1, D3R. Put plainly: PDSP β-arrestin recruitment Tango assay, D3R. The format is cell-based. The conditions noted are these: Tango assays, agonist and antagonist mode.
Another experiment addresses α3β4 (Rattus norvegicus, UniProt P04757+P12392). Put plainly: PDSP binding, α3β4. The conditions noted are these: read-out: inhibition in primary assay at 10 μM.

T1 sequence (P35462 whole entry): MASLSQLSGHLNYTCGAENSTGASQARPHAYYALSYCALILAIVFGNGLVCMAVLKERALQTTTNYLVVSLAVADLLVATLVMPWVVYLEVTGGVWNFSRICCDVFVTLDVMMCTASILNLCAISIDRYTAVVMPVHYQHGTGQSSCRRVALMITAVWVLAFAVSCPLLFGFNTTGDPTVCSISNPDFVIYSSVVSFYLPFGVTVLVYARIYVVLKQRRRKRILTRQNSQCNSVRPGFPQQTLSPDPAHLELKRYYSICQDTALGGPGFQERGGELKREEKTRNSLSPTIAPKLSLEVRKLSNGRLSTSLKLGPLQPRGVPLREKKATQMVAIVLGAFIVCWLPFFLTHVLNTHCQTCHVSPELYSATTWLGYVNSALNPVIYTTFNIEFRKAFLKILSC
Sequence of α2β2 (P12389 28-511): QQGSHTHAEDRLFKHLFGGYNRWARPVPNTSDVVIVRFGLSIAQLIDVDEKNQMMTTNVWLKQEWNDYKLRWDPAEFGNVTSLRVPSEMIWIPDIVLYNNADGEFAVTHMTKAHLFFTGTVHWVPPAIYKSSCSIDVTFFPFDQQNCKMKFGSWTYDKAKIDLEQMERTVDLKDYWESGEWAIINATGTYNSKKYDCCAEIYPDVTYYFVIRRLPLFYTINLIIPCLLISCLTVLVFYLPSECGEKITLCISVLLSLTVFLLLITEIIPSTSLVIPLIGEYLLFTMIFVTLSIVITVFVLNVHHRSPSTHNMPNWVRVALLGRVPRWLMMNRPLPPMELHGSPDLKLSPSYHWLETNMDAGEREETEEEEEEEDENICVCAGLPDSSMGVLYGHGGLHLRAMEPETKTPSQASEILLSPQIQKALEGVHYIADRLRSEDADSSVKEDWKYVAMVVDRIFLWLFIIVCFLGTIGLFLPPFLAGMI
Sequence of α2β2 (P12390 25-500): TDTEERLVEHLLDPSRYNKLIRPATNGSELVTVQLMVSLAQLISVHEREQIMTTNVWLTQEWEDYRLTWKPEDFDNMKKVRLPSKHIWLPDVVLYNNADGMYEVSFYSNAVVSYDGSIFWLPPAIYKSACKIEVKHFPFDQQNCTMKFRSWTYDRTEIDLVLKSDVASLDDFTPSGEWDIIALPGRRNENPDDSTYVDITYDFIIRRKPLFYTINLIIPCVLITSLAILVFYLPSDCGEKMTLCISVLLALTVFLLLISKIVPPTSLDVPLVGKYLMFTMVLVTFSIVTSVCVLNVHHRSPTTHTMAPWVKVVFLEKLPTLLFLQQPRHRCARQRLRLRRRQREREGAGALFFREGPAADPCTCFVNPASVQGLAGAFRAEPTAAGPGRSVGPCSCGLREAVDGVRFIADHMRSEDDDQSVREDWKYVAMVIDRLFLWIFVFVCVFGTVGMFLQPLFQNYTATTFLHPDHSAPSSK
Sequence of α2β4 (P12389 28-511): as the sequence (P12389 28-511) above
Sequence of α2β4 (P12392 21-495): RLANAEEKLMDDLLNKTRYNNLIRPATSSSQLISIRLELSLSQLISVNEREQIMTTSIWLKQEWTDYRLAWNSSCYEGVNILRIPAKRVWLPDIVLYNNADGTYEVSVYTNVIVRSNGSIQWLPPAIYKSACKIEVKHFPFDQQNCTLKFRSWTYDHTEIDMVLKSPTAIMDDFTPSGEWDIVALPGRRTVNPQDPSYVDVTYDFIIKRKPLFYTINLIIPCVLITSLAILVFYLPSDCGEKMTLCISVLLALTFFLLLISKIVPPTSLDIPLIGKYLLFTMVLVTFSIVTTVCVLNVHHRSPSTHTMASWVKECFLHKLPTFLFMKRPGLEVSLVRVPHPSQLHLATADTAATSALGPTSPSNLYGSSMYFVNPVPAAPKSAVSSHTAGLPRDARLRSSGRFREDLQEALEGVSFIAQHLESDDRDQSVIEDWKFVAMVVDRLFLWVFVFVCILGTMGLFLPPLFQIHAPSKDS
Sequence of α4β4 (P09483 31-630): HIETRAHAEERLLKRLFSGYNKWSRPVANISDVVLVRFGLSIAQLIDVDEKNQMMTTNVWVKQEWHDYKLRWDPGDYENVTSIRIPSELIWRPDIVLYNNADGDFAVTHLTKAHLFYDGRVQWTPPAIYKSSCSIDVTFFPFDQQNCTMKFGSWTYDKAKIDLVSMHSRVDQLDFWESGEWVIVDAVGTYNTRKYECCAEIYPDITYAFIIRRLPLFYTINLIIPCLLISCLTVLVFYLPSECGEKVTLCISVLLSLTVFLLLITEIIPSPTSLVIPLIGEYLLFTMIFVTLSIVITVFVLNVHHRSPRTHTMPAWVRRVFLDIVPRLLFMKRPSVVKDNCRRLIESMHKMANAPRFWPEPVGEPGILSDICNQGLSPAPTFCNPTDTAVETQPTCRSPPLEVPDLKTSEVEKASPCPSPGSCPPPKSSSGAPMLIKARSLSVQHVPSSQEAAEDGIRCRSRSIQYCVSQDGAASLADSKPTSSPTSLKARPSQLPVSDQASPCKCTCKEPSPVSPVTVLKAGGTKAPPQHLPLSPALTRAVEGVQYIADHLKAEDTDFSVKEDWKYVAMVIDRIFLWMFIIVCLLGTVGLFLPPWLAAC
Sequence of α4β4 (P12392 21-495): as the sequence (P12392 21-495) above
Sequence of α3β2 (P04757 26-499): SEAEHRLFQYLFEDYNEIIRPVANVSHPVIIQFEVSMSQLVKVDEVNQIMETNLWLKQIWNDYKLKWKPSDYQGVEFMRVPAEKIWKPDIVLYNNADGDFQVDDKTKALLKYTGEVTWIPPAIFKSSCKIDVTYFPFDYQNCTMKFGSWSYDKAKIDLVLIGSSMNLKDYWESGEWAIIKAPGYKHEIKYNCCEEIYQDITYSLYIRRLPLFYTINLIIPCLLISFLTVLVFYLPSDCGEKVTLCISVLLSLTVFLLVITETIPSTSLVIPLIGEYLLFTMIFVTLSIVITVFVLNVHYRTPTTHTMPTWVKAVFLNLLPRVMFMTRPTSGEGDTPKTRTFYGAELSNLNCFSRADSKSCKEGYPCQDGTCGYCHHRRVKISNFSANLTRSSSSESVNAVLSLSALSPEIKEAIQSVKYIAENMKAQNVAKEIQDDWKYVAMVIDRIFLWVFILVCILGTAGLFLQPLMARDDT
Sequence of α3β2 (P12390 25-500): as the sequence (P12390 25-500) above
Sequence of α3β4 (P04757 26-499): as the sequence (P04757 26-499) above
Sequence of α3β4 (P12392 21-495): as the sequence (P12392 21-495) above
Sequence of D2R (P14416 whole entry): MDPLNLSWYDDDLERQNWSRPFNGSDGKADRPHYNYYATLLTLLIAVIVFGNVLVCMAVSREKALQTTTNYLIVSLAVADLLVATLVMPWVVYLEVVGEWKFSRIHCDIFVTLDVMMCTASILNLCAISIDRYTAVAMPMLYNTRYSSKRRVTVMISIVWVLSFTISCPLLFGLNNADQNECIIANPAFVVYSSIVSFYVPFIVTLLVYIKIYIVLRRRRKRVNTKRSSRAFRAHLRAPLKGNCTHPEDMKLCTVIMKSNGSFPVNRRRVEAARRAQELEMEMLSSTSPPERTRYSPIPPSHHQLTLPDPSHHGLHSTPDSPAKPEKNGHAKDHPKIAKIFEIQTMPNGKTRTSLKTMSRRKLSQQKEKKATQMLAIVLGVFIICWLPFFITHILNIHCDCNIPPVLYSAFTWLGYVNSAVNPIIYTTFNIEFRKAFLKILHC
Sequence of human D2 (long) (P14416 whole entry): as above

Turning to “3-(2-((4-Methyl-5-phenyl-4H-1,2,4-triazol-3-yl)thio)propyl)-3,9-diazaspiro[5.5]undecane [Compound 6f]”, on D3R [1], the D2/D3 ratio is recorded as over 197.
For `COc1ccccc1N1CCC2(CCNCC2)CC1` [4b], on human D2 (long), the “Ki ± SEM D2R” value is 99,379 ± 11,752 nM. Moreover, the D2/D3 ratio on D3R [1] is over 2.5. Further, at D3R [1] (human D3 in HEK cells, [125I]IABN, mean ± SEM, at least three experiments), the “Ki ± SEM D3R” value was >39,319 nM.
For `COc1ccccc1N1CCC2(CCN(CCCSc3nnc(-c4ccccc4)n3C)CC2)CC1` [Compound 1, 3-(2-methoxyphenyl)-9-(3-((4-methyl-5-phenyl-4H-1,2,4-triazol-3-yl)thio)-propyl)-3,9-diazaspiro[5.5]undecane], the Ki in experiment [2] was over 1000 nM. For the same compound, the inhibition at 10 µM on α4β4, at α3β2, at α2β2 and at α2β4 was under 50% in each case. For the same compound, the “Schild plot regression slope” value at D3R [3] was “linear regression slope near unity”. Further, at D3R [3], the “shift of dopamine dose-response curves” value is given as “limitless rightward shift”.
In the case of `CCCCN1CCC2(CC1)CCN(c1ccccc1OC)CC2` [Compound 5a, 3-Butyl-9-(2-methoxyphenyl)-3,9-diazaspiro[5.5]undecane], the D2/D3 ratio on D3R [1] is reported as over 9.6.
The same measure, in the same setting: to `CCCCN1CCC2(CCN(c3ccccc3OC)C2)C1` (stereo not shown) [Compound 5c, 2-Butyl-7-(2-methoxyphenyl)-2,7-diazaspiro[4.4]nonane] belongs over 1.1.
Still for that read-out and setting: in the case of `CCCSc1nnc(-c2ccccc2)n1C` [Compound 6a, 4-Methyl-3-phenyl-5-(propylthio)-4H-1,2,4-triazole] it was over 3.6; in that of `COc1ccccc1N1CCC2(CCN(CCCSc3nnc(-c4ccccc4)[nH]3)CC2)CC1` [Compound 17, 3-(2-Methoxyphenyl)-9-(3-((5-phenyl-4H-1,2,4-triazol-3-yl)thio)-propyl)-3,9-diazaspiro[5.5]undecane], 35.
With `COc1ccccc1N1CCC2(CCN(CCSc3nnc(-c4ccccc4)n3C)CC2)CC1` [Compound 20, 3-(2-Methoxyphenyl)-9-(2-((4-methyl-5-phenyl-4H-1,2,4-triazol-3-yl)thio)ethyl)-3,9-diazaspiro[5.5]undecane], at D3R [1], the D2/D3 ratio worked out at 100.
Turning to `COc1ccccc1N1CCN(CCCSc2nnc(-c3ccccc3)n2C)CC1` [Compound 31], the inhibition at 10 µM on α4β4, at α3β2, at α2β2, at α2β4 and on α3β4 was under 50% throughout. Besides, the “functional behavior at D2R” value on D2R is recorded as “weak agonist/antagonist”. The “shift of dopamine dose-response curves” value at D3R [3] was “limitless rightward shift”. Moreover, the “functional behavior at D3R” value at D3R [4] is reported as “weak agonist/antagonist”.
`COc1ccccc1N1CCC2(CCN(CCCSc3nnc(-c4ccccc4)n3C)C2)CC1` [Compound 34, 8-(2-Methoxyphenyl)-2-(3-((4-methyl-5-phenyl-4H-1,2,4-triazol-3-yl)thio)propyl)-2,8-diazaspiro[4.5]decane]: the “increase in receptor selectivity” value on D3R [1] (relative to 33) is 2 fold.
